# Molecular target: Rv2623 (Mycobacterium tuberculosis, UniProt P9WFD7)
# Sequence (P9WFD7 whole entry): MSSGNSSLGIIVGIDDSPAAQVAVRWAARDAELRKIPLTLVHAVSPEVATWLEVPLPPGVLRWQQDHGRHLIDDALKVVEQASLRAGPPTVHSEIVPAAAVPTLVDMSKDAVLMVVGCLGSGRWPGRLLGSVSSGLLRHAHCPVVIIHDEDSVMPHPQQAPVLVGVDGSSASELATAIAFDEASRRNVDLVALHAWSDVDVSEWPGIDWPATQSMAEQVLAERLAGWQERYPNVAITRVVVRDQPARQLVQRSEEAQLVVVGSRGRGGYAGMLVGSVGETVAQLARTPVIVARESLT
structure (smiles),measurement,value
Nc1ncnc2c1ncn2[C@@H]1O[C@H](COP(=O)(O)OP(=O)(O)O)[C@@H](O)[C@H]1O [ADP],HPLC of nucleotide extracted from purified protein by boiling,His6-Rv2623 co-purifies with both ATP and ADP
